Numbered stars: 1 amine (or outer) side, 2 acyl side, 3 side chain; on linkers, the order of the positions; unused ones are H or OH. Square brackets hold non-standard residues; d marks the D form. Side chains are listed from the residue outwards. Ends that are not written are not given here. Peptide text beside a SMILES is read from it. * marks the point of attachment. γGlu = O=C(O)[C@H](CCC(=O)[*:2])N[*:1]; Palmitoyl = CCCCCCCCCCCCCCCC(=O)*; Aib = CC(C)(N)C(=O)O
Columns and labels:
[1] = tested on: anesthetized male Sprague-Dawley rats; assay: Inotropic effect in vivo in anaesthetized rats (stroke work, heart rate); conditions: for increase in strokework / heart rate: i.v. infusion; for increase in strokework: at a given infusion rate (up to 2.5 nmol/kg/min), 40% set as end point; for heart rate: 0.2 and 0.5 nmol/kg/min
Description: The rats were exposed to 5% isoflurane in 1:2 N2O:O2 until anesthesia were established.
A catheter was inserted into the left femoral vein for drug administration and a pressure-volume catheter was inserted into the left ventricle via the right carotid artery. After instrumentation, isoflurane was delivered in pure O2 during the experiment.
The horizontal line marks 40% increase in stroke work, which was defined as the maximal increase that should be obtained during the experiment.

human GLP-1R = molecular target: T1, human GLP-1R (Homo sapiens, UniProt P43220); assay: cAMP formation in HEK293 cells expressing human GLP-1R; type: cell-based; conditions: 15 min at 37° C.
T1 construct: expressed in transfected cells; host or cells: HEK293
T1 sequence (P43220 24-463): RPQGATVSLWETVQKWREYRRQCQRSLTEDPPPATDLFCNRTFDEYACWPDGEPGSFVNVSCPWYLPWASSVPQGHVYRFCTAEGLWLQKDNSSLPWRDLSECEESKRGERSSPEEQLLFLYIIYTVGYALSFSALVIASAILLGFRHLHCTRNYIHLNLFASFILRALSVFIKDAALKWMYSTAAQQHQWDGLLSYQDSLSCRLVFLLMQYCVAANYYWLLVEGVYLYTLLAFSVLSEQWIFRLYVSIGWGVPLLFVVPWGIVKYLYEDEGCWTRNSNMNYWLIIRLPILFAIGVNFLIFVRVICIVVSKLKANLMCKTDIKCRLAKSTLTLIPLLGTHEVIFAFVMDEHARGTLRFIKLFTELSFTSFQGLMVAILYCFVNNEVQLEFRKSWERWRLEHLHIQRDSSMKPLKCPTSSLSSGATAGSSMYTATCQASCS
In short: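 Test peptides at rising concentrations were incubated 15 min at 37° C in Tyrode buffer containing 6 mM glucose and 100 μM IBMX.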

human glucagon receptor = molecular target: T2, human glucagon receptor (Homo sapiens, UniProt P47871); assay: cAMP formation in HEK293 cells expressing the human glucagon receptor; type: cell-based; conditions: 15 min at 37° C., read-out: EC50 (nM) GuR
T2 construct: expressed in transfected cells; host or cells: HEK293
T2 sequence (P47871 26-477): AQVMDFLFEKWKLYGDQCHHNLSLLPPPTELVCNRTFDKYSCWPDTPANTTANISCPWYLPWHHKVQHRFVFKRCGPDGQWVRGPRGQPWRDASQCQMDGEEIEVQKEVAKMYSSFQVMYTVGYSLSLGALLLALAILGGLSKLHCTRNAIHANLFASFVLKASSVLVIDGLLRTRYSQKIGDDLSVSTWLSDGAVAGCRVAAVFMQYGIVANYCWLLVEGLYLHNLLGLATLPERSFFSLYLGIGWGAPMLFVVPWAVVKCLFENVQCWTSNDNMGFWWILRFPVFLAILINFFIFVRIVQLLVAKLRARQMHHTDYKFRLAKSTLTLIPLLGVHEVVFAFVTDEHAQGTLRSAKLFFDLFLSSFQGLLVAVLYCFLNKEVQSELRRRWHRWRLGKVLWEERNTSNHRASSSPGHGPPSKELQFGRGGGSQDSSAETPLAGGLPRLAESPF
Description: Similarly, activation of the GLP-1 receptor by a GLP-1 agonist will stimulate cellular cAMP formation. Thus, production of cAMP in suitable cells expressing one of these two receptors can be used to monitor the relevant receptor activity.
The skilled person will be aware of suitable assay formats, and examples are provided below. […] (Where sequences of precursor proteins are referred to, it should of course be understood that assays may make use of the mature protein, lacking the signal sequence).
On the day of analysis, growth medium was removed and the cells washed once with 200 μl Tyrode buffer. Cells were incubated in […] containing increasing concentrations of test peptides, 100 μM IBMX, and 6 mM glucose for 15 min at 37° C. The reaction was stopped by addition of 25 μl 0.5 M HCl and incubated on ice for 60 min. The cAMP content was estimated using the FlashPlate® cAMP kit from Perkin-Elmer. EC50 values were estimated by computer aided curve fitting.

[2] = tested on: isolated working hearts from control and insulin-resistant JCR:LA-cp rats; assay: Inotropic effect and energy state in isolated working heart model; parameters: species or system rat; conditions: compared with vehicle perfused hearts
Description: Following perfusions, high energy phosphate nucleotide concentrations were measured by high performance liquid chromatography (HPLC) (Ally, A and Park, G. Rapid determination of creatine, phosphocreatine, purine bases and nucleotides (ATP, ADP, AMP, GTP, GDP) in heart biopsies by gradient ion-pair reversed-phase liquid chromatography. Journal of Chromatography. 1992; 575: 19-27).

Row | Compound | increase in strokework [1] [%] | heart rate [1] | also measured
1 | HSQGTFTSDYSKYLDRARADDFVAWLERA [Compound 9] | 40 | – | –
2 | HSQGTFTSDYSKYLDSKAARDFVRWLKLA-NH2 [Compound 37] | – | tendency | –
3 | CCCCCCCCCCCCCCCC(=O)N[C@@H](CCC(=O)NCCCC[C@H](NC(=O)[C@H](CO)NC(=O)[C@H](CC(=O)O)NC(=O)[C@H](CC(C)C)NC(=O)[C@H](Cc1ccc(O)cc1)NC(=O)[C@H](CCCCN)NC(=O)[C@H](CO)NC(=O)[C@H](Cc1ccc(O)cc1)NC(=O)[C@H](CC(=O)O)NC(=O)[C@H](CO)NC(=O)[C@@H](NC(=O)[C@H](Cc1ccccc1)NC(=O)[C@@H](NC(=O)CNC(=O)[C@H](CCC(N)=O)NC(=O)C(C)(C)NC(=O)[C@@H](N)Cc1c[nH]cn1)[C@@H](C)O)[C@@H](C)O)C(=O)N[C@@H](C)C(=O)N[C@@H](C)C(=O)N[C@@H](Cc1c[nH]cn1)C(=O)N[C@@H](CC(=O)O)C(=O)N[C@@H](Cc1ccccc1)C(=O)N[C@H](C(=O)N[C@@H](CCC(=O)O)C(=O)N[C@@H](Cc1c[nH]c2ccccc12)C(=O)N[C@@H](CC(C)C)C(=O)N[C@@H](CC(C)C)C(=O)N[C@@H](CCCNC(=N)N)C(=O)N[C@@H](C)C(N)=O)C(C)C)C(=O)O [Compound 206] (H-H[Aib]QGTFTSDYSKYLDSK([γGlu-Palmitoyl])AAHDFVEWLLRA-NH2) | 40 | – | EC50 (human GLP-1R): 0.09 nM; EC50 (human glucagon receptor): 0.16 nM; duration of strokework increase ([1]; after end of compound infusion, during final vehicle infusion): prolonged increase in strokework that outlasted the compound infusion
4 | H-HSQGTFTSDYSKYLDRARADDFVAWLKST-NH2 [Compound 12] | – | – | energetic state of the hearts [2]: not significantly different from vehicle perfused hearts
5 | CC[C@H](C)[C@H](NC(=O)[C@H](Cc1ccccc1)NC(=O)[C@H](CC(=O)O)NC(=O)[C@H](CCCCN)NC(=O)[C@H](C)NC(=O)[C@H](CCCNC(=N)N)NC(=O)[C@H](CCCNC(=N)N)NC(=O)[C@H](CCC(=O)O)NC(=O)[C@H](CC(=O)O)NC(=O)[C@H](CC(C)C)NC(=O)[C@H](Cc1ccc(O)cc1)NC(=O)[C@H](CCCCN)NC(=O)[C@H](CO)NC(=O)[C@H](Cc1ccc(O)cc1)NC(=O)[C@H](CC(=O)O)NC(=O)[C@H](CO)NC(=O)[C@@H](NC(=O)[C@H](Cc1ccccc1)NC(=O)[C@@H](NC(=O)CNC(=O)[C@H](CCC(N)=O)NC(=O)[C@H](CO)NC(=O)[C@@H](N)Cc1c[nH]cn1)[C@@H](C)O)[C@@H](C)O)C(=O)N[C@@H](CCC(=O)O)C(=O)N[C@@H](Cc1c[nH]c2ccccc12)C(=O)N[C@@H](CC(C)C)C(=O)N[C@@H](CC(C)C)C(=O)N[C@@H](CO)C(=O)N[C@@H](C)C(N)=O [Compound 35] | – | tendency | –

Reference: patent US20130157953A1, “TREATMENT OF CARDIAC CONDITIONS” (Zealand Pharma A/S, priority 2010, published 2013)
